According to patent publication US12077503B2, “Substituted cyclic amides and their use as herbicides” (FMC CORPORATION, priority 2015, dated 2024):

Experiments:
Type in all cases: in vivo
[1] = tested on: ducksalad (Heteranthera limosa); experiment: Test B flooded paddy test; conditions: Heteranthera limosa, 250 g ai/ha, Flood; 0 to 100 scale where 0 is no effect and 100 is complete control; read-out: Ducksalad plant response rating
Procedure, shortened: (§1)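 Greenhouse paddy pots with 2-leaf stage plants received compound by direct addition to floodwater 3 cm deep, kept at that level. Scored visually at 13–15 d versus controls (0 no effect; 100 complete control).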

[2] = tested on: barnyardgrass (Echinochloa crus-galli); experiment: Test B flooded paddy test; conditions: Echinochloa crus-galli, 250 g ai/ha, Flood; 0 to 100 scale where 0 is no effect and 100 is complete control; read-out: Barnyardgrass plant response rating
Procedure, shortened: as §1

[3] = tested on: sedge, umbrella (small-flower umbrella sedge, Cyperus difformis); experiment: Test B flooded paddy test; conditions: Cyperus difformis, 250 g ai/ha, Flood; 0 to 100 scale where 0 is no effect and 100 is complete control; read-out: Sedge, Umbrella plant response rating
Procedure, shortened: as §1

rice (Oryra sativa) = experiment: Test B flooded paddy test; conditions: Oryza sativa, 250 g ai/ha, Flood; 0 to 100 scale where 0 is no effect and 100 is complete control; read-out: Rice plant response rating
Procedure, shortened: as §1

corn (Zea mays) = experiment: Test A postemergence; conditions: Zea mays, post-emergence, 240 h, Postemergence, read-out: Corn plant response rating (0 to 100 scale)
Procedure, shortened: (§2)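 Greenhouse, ~10 d after spray; visual injury vs untreated controls, 0 = no effect, 100 = complete control. Preemergence: directed soil spray over planted seeds. Postemergence: plants 2–10 cm, 1–2 leaf stage. Loam/sand blend. Compound in non-phytotoxic solvent with surfactant.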

[4] = tested on: wheat (Triticum aestivum); experiment: Test A postemergence; conditions: Triticum aestivum, post-emergence, 240 h, Postemergence, read-out: Wheat plant response rating (0 to 100 scale)
Procedure, shortened: as §2

[5] = tested on: ragweed (common ragweed, Ambrosia elatior); experiment: Test A postemergence; conditions: Ambrosia artemisiifolia, post-emergence, 240 h, Postemergence, read-out: Ragweed plant response rating (0 to 100 scale)
Procedure, shortened: as §2

[6] = tested on: pigweed (Amaranthus retroflexus); experiment: Test A postemergence; conditions: Amaranthus retroflexus, post-emergence, 240 h, Postemergence, read-out: Pigweed plant response rating (0 to 100 scale)
Procedure, shortened: as §2

[7] = tested on: Galium (catchweed bedstraw, Galium aparine); experiment: Test A postemergence; conditions: Galium, post-emergence, 240 h, Postemergence, read-out: Galium plant response rating (0 to 100 scale)
Procedure, shortened: as §2

[8] = tested on: barnyardgrass (Echinochloa crus-galli); experiment: Test A postemergence; conditions: Echinochloa crus-galli, post-emergence, 240 h, Postemergence
Procedure, shortened: as §2

[9] = tested on: blackgrass (Alopecurus myosuroides); experiment: Test A postemergence; conditions: Alopecurus myosuroides, post-emergence, 240 h, Postemergence, read-out: Blackgrass plant response rating (0 to 100 scale)
Procedure, shortened: as §2

[10] = tested on: giant foxtail (Setaria faberii); experiment: Test A postemergence; conditions: Setaria faberi, post-emergence, 240 h, Postemergence, read-out: Foxtail, Giant plant response rating (0 to 100 scale)
Procedure, shortened: as §2

Kochia (Kochia scoparia) [11] = experiment: Test A postemergence; conditions: Bassia scoparia, post-emergence, 240 h, Postemergence, read-out: Kochia plant response rating (0 to 100 scale)
Procedure, shortened: as §2

[12] = tested on: ryegrass, Italian (Italian ryegrass, Lolium multiflorum); experiment: Test A postemergence; conditions: Lolium multiflorum, post-emergence, 240 h, Postemergence, read-out: Ryegrass, Italian plant response rating (0 to 100 scale)
Procedure, shortened: as §2

[13] = tested on: ragweed (common ragweed, Ambrosia elatior); experiment: Test A preemergence; conditions: Ambrosia artemisiifolia, pre-emergence, 240 h, 0 to 100 scale where 0 is no effect and 100 is complete control, read-out: Ragweed plant response rating
Procedure, shortened: as §2

[14] = tested on: pigweed (Amaranthus retroflexus); experiment: Test A preemergence; conditions: Amaranthus retroflexus, pre-emergence, 240 h, 0 to 100 scale where 0 is no effect and 100 is complete control, read-out: Pigweed plant response rating
[15] = tested on: barnyardgrass (Echinochloa crus-galli); experiment: Test A preemergence; conditions: Echinochloa crus-galli, pre-emergence, 240 h, 0 to 100 scale where 0 is no effect and 100 is complete control, read-out: Barnyardgrass plant response rating
Procedure, shortened: as §2

[16] = tested on: giant foxtail (Setaria faberii); experiment: Test A preemergence; conditions: Setaria faberi, pre-emergence, 240 h, 0 to 100 scale where 0 is no effect and 100 is complete control, read-out: Foxtail, Giant plant response rating
Procedure, shortened: as §2

Kochia (Kochia scoparia) [17] = experiment: Test A preemergence; conditions: Bassia scoparia, pre-emergence, 240 h, 0 to 100 scale where 0 is no effect and 100 is complete control, read-out: Kochia plant response rating
Procedure, shortened: as §2

[18] = tested on: ryegrass, Italian (Italian ryegrass, Lolium multiflorum); experiment: Test A preemergence; conditions: Lolium multiflorum, pre-emergence, 240 h, 0 to 100 scale where 0 is no effect and 100 is complete control, read-out: Ryegrass, Italian plant response rating
Procedure, shortened: as §2

[19] = 125 g ai/ha, visual rating about 10 d after treatment
[20] = 31 g ai/ha, 0 is no effect, 100 is complete control
[21] = 125 g ai/ha, preemergence, visual injury rating, approximately 10 d

Compound `O=C1NC[C@H](c2cccc(C(F)(F)F)c2)[C@H]1C(=O)Nc1ccccc1-n1cncn1` [Compound 1290] has a pest or weed control at 250 g/ha [1] of 0%, a pest or weed control at 250 g/ha [2] of 0% and a pest or weed control at 250 g/ha [3] of 0%. The pest or weed control at 250 g/ha (rice (Oryra sativa)) was 10%, the plant injury at 125 g/ha (corn (Zea mays); [19]) was 0% and the plant injury at 31 g/ha (corn (Zea mays); [20]) was 0%. It also gave a plant injury at 125 g/ha [4, 19] of 0%, a plant injury at 31 g/ha [4, 20] of 0% and a pest or weed control at 125 g/ha [5, 19] of 0%. It also gave a pest or weed control at 31 g/ha [5, 20] of 0%, a pest or weed control at 125 g/ha [6, 19] of 0% and a pest or weed control at 31 g/ha [6, 20] of 0%. It also gave a pest or weed control at 125 g/ha [7, 19] of 0%, a pest or weed control at 31 g/ha [7, 20] of 0% and a pest or weed control at 125 g/ha ([8]; 125 g ai/ha, visual rating about 10 d after treatment, read-out: Barnyardgrass plant response rating (0 to 100 scale, 0 no effect, 100 complete control)) of 0%. For the same compound, the pest or weed control at 31 g/ha ([8]; 31 g ai/ha, 0 is no effect, 100 is complete control, read-out: Barnyardgrass plant response rating (0 to 100 scale)) was 0%, the pest or weed control at 125 g/ha [9, 19] was 0% and the pest or weed control at 31 g/ha [9, 20] was 0%. It also gave a pest or weed control at 125 g/ha [10, 19] of 0%, a pest or weed control at 31 g/ha [10, 20] of 0% and a pest or weed control at 125 g/ha (Kochia (Kochia scoparia) [11]; [19]) of 0%. The pest or weed control at 31 g/ha (Kochia (Kochia scoparia) [11]; [20]) was 0%, the pest or weed control at 125 g/ha [12, 19] was 0% and the pest or weed control at 31 g/ha [12, 20] was 0%. The pest or weed control at 31 g/ha ([13]; 31 g ai/ha, Preemergence) was 0%, the pest or weed control at 125 g/ha [13, 21] was 0% and the pest or weed control at 31 g/ha ([14]; 31 g ai/ha, Preemergence) was 0%. It also gave a pest or weed control at 125 g/ha [14, 21] of 0%, a pest or weed control at 31 g/ha ([15]; 31 g ai/ha, Preemergence) of 0% and a pest or weed control at 125 g/ha [15, 21] of 0%. The pest or weed control at 31 g/ha ([16]; 31 g ai/ha, Preemergence) was 0%, the pest or weed control at 125 g/ha [16, 21] was 0% and the pest or weed control at 31 g/ha (Kochia (Kochia scoparia) [17]; 31 g ai/ha, Preemergence) was 0%. For the same compound, the pest or weed control at 125 g/ha (Kochia (Kochia scoparia) [17]; [21]) was 0%, the pest or weed control at 31 g/ha ([18]; 31 g ai/ha, Preemergence) was 0% and the pest or weed control at 125 g/ha [18, 21] was 0%.
